Results taken from patent US6723897B2, “Methods for controlling gibberellin levels” (Monsanto Technology, LLC, priority 1998, dated 2004).

Tests used:
[1] = test system: wild-type soybeans (line A3237); experiment: Summary of first two greenhouse experiments, elongation of wild-type soybeans
Experimental: (§1) Compounds are first prepared as 25 mg/ml solutions in ethanol as described above, and then diluted into 40 ml of water to prepare the final 0.25 mg/ml treatment solutions. Visual observations on solubilities (milky, clear, etc.) of the treatment solutions are noted. The treatment solutions are divided into two 20 ml portions, each in 50 ml plastic centrifuge tubes. In addition to treating seeds with solutions containing the test compounds, untreated seeds and seeds imbibed in ethanol-water solution (300 μl ethanol in 30 mls of water) are also included in this experiment as controls. In the latter case, 20 seeds are imbibed in 30 mls of solution for six hours.
Two soybean varieties are selected for testing: constitutively GA-deficient transgenic dwarf soybean line 719 (plasmid pMON29801, constitutive FMV promoter/asCPScc; which is a mixture of 719−2 and 719+17), and A3237, the wild-type parent material. […] After imbibition, seeds are removed from the test tubes, placed on wax paper to dry, and planted in bread pans containing farm soil amended with fertilizer at 20 seeds/pan. Seeds are covered with 0.5″ of vermiculite. Pans are transferred to the greenhouse, which had day/night temperatures of 86/68° F. (30/20° C.), and subirrigated. Illumination is at a light intensity of 300-400 μmolm^−2s^−1 photosynthetic photon flux; 16 hours light/8 hours dark. Subsequent waterings are also through sub-irrigation until the test is terminated three weeks later. Observations included the number of dwarf, intermediate, and tall plants; plant height; uniformity of rescue; and any visual effects.
All compounds are tested at final concentrations of 0.25, 0.025, and 0.0025 mg/ml except for GA9, which is tested at 0.125, 0.0125, and 0.00125 mg/ml. (The compounds are tested in Experiment I at only one concentration, i.e., 0.25 mg/ml). Test tubes contained […] of ethanol solution per tube. Final volumes are made up to 30 ml with deionized water. After shaking, the treatment solutions (15 ml each) are transferred to each of two 50 ml test tubes. Treatments 1 to 27 are performed on wild-type line A3237; treatments 28 to 54 are performed on constitutively GA-deficient transgenic dwarf soybean line 719 (a mixture of 719−2 and 719+17). Twenty seeds are used in each treatment. Dry seed, ethanol/water-imbibed seed (1% ethanol in water, v/v), and water-imbibed seeds are included as controls. Seeds are imbibed for 6 hours in the test solutions, then planted in bread pans containing Metromix 350 (The Scotts Company, Marysville, Ohio), and covered with 0.5″ Metro-mix. Covered pans are transferred to the greenhouse and subirrigated. Illumination is at a light intensity of 300-400 μmolm^−2s^−1 photosynthetic photon flux; 16 hours light/8 hours dark. Subsequent waterings are also through sub-irrigation until the test is terminated three weeks later. Observations included the number of dwarf, intermediate, and tall plants; plant height; uniformity of rescue; and any visual effects. Digital photographs are also taken.

[2] = Particulate material present in solutions after mixing; type: physicochemical; details: for Particulate material present, 100X Diln w/water: 0.25 mg/ml compound in water; for solubility in water during imbibition: 0.25 mg/ml treatment solutions
Experimental: Each of the compounds noted above is weighed to the nearest 0.1 mg in a pre-tarred 1.5-ml polypropylene vial with a screw-top lid. Absolute ethanol is added to the weighed powder to prepare a 25 mg/ml solution. Solutions are thoroughly mixed using a vortex mixer. A stainless steel spatula is used to crush any particulate material remaining after extensive mixing. Vials are left overnight at room temperature, and then remixed to form the concentrated ethanol stock solutions. The presence of undissolved material is noted throughout this procedure.

[3] = test system: wild-type soybean line A3237; experiment: Experiment I greenhouse test, seed imbibition, wild-type soybean; details: 0.25 mg/ml; seeds imbibed 5 hours
Experimental: as §1, with “In the latter case, 20 seeds are imbibed in 30 mls of solution for six hours.” left out
After imbibition, seeds are removed from the test tubes, placed on wax paper to dry, and planted in bread pans containing farm soil amended with fertilizer at 20 seeds/pan. Seeds are covered with 0.5″ of vermiculite. Pans are transferred to the greenhouse, which had day/night temperatures of 86/68° F. (30/20° C.), and subirrigated. Illumination is at a light intensity of 300-400 μmolm^−2s^−1 photosynthetic photon flux; 16 hours light/8 hours dark. Subsequent waterings are also through sub-irrigation until the test is terminated three weeks later. Observations included the number of dwarf, intermediate, and tall plants; plant height; uniformity of rescue; and any visual effects.

[4] = test system: AX5/antisense CPScc soybean line 46 (R2); experiment: Hilum seed treatment of epicotyl-intensive GA-deficient soybean, seedling height (FIG. 42); type: in vivo, Glycine max; details: 8 DAP
Experimental: These studies are performed on soybean plants engineered to express their GA-deficient phenotype throughout the life cycle via the use of the constitutive FMV promoter (line 719, FMV/antisense CPScc). In contrast to the constitutive FMV promoter, the peak activity of the AX5 promoter is developmentally restricted to the soybean seedling axis (epicotyl) three to five days after the start of imbibition, with limited expression beyond the seedling stage of development. Soybean lines transformed with the […] cassette therefore display an epicotyl-intensive dwarf phenotype. In these lines, inhibition of the hypocotyl is modest; most of the total height reduction in these plants is due to shortening of the epicotyl. Rescue of […] soybean plants therefore presents different technical challenges from those required for rescue of constitutively GA-deficient transgenic dwarf soybean lines containing the […] construct. […] Seed from both lines is produced from greenhouse-grown plants. […] If multiple applications are made to seeds, the previous application is allowed to dry before a subsequent application is made. […] (29° C.) day and 75° F. night (24° C.). Pots are watered as necessary by overhead hand watering. Hypocotyl and epicotyl measurements are made for each plant at various stages of plant growth. […] The results are shown in FIG. 42, where the error bar represents +/-two times the standard error of the mean (n=12-15). […] The upper dashed horizontal line represents the total height of untreated wild-type […] soybeans. Measurements are made 8 days after planting.

[5] = 0.0025 mg/ml solution (ethanol-water)
[6] = 0.025 mg/ml solution (ethanol-water)
[7] = 0.25 mg/ml solution (ethanol-water)

Structure (SMILES) | Elongation of wild-type soybeans [1, 5] | Elongation of wild-type soybeans [1, 6] | Elongation of wild-type soybeans [1, 7] | Particulate material present, 100X Diln w/water [2] | solubility in water during imbibition [2] | Observation on Wild-Type Line A3237 [3] | effect on line 46 total height [4] | line 46 seedling height ([4]; concentrations up to 40 μg/seed) | Particulate material present, Initial Mixing ([2]; 25 mg/ml in absolute ethanol) | Particulate material present, O/N Incubation ([2]; 25 mg/ml in ethanol, overnight at room temperature, remixed) | activity relative to GA3, GA3-3-acetate and GA5 [4] | Elongation of wild-type soybeans ([1]; 0.00125 mg/ml solution (ethanol-water)) | Elongation of wild-type soybeans ([1]; 0.0125 mg/ml solution (ethanol-water)) | Elongation of wild-type soybeans ([1]; 0.125 mg/ml solution (ethanol-water))
C=C1C[C@@]23CC[C@H]4[C@@](C)(CCC[C@@]4(C)C(=O)O)[C@@H]2CC[C@@H]1C3 [kaurenoic acid] | 0 | 0 | − | YES | less soluble in water during imbibition | 0 |  |  |  |  |  |  |  | 
C=C1C[C@]23C[C@H]1CC[C@H]2[C@]1(C)CCC[C@@](C)(C(=O)O)[C@H]1[C@@H]3C(=O)O [GA12] | 0 | − | − |  | less soluble in water during imbibition | −1 | reduced plant height | did not increase line 46 seedling height | YES | YES |  |  |  | 
C=C1C[C@]23C[C@@]1(O)CC[C@H]2[C@@]12C=C[C@H](OC(C)=O)[C@@](C)(C(=O)O1)[C@H]2[C@@H]3C(=O)O [GA3-3-acetate] |  |  |  |  |  | 3 | rescued AX5/asCPScc soybean line 46 total height, with some hypocotyl over-elongation |  |  |  |  |  |  | 
C=C1C[C@]23C[C@H]1CC[C@H]2[C@@]12CCC[C@@](C)(C(=O)O1)[C@H]2[C@@H]3C(=O)O [GA9] |  |  | + | YES | less soluble in water during imbibition | 3 | rescued AX5/asCPScc soybean line 46 total height, with some hypocotyl over-elongation |  |  |  | approximately ten times less active | − | 0 | 0
C=C1C[C@]23C[C@@]1(O)CC[C@H]2[C@@]12C=C[C@H](O)[C@@](C)(C(=O)O1)[C@H]2[C@@H]3C(=O)O [GA3, gibberellic acid] | + | + | + |  |  | 3 | rescued AX5/asCPScc soybean line 46 total height, with some hypocotyl over-elongation |  |  |  |  |  |  | 
C=C1C[C@]23C[C@@]1(O)CC[C@H]2[C@@]12CC=C[C@@](C)(C(=O)O1)[C@H]2[C@@H]3C(=O)O [GA5] | 0 | 0 | + |  |  | 4 | rescued AX5/asCPScc soybean line 46 total height, with some hypocotyl over-elongation |  |  |  |  |  |  | 
